According to paper PMC6792352, “Limited Chemical Structural Diversity Found to Modulate Thyroid Hormone Receptor in the Tox21 Chemical Library” (Environmental Health Perspectives, 2019):
Structures can show the parent of a compound that is named as a salt.

Assay: in vitro
Settings: rat, gh3-tre-luc cells, AC50 (uM) modified / 1000

For `CC1(C)C2C(=O)CCC(C)(C)[C@]23CC[C@H]1C3` (some centres unmarked) [Isolongifolanone], which CC50 at 24 h is on record?
Its CC50 at 24 h is greater than 90 µM.

For `C[C@@H]1CC[C@@]2(OC1)O[C@H]1[C@@H](O)[C@H]3[C@@H]4CC[C@H]5C[C@@H](O[C@@H]6O[C@H](CO)[C@H](O[C@@H]7O[C@H](CO)[C@@H](O)[C@H](O[C@@H]8OC[C@@H](O)[C@H](O)[C@H]8O)[C@H]7O[C@@H]7O[C@H](CO)[C@H](O)[C@H](O[C@@H]8O[C@H](CO)[C@@H](O)[C@H](O)[C@H]8O)[C@H]7O)[C@H](O)[C@H]6O)[C@H](O)C[C@]5(C)[C@H]4CC[C@]3(C)[C@H]1[C@@H]2C` [Digitonin], which CC50 at 24 h is on record?
Its CC50 at 24 h is 1.67 µM.

With `O=C(NCCNCC(O)COc1ccc(O)cc1)N1CCOCC1` (centres unmarked) [Xamoterol] as the compound, how does the CC50 at 24 h read?
The CC50 at 24 h was greater than 50 µM.

Which CC50 at 24 h does the source give for `O=c1[nH]c(=O)n([C@H]2C[C@H](O)[C@@H](CO)O2)cc1F` [Floxuridine] here?
Its CC50 at 24 h is greater than 50 µM.

With `CCCCCCOCCO` [2-Hexyloxyethanol] as the compound, how does the CC50 at 24 h read?
The CC50 at 24 h was greater than 90 µM.

With `CCC(Oc1ccccc1)C(=O)N[C@@H]1C(=O)N2[C@@H]1SC(C)(C)[C@@H]2C(=O)O` (some centres unmarked) [Propicillin] as the compound, how does the CC50 at 24 h read?
The CC50 at 24 h was greater than 50 µM.

With `O=C(O)[C@H](O)c1ccccc1` [D-(-)-Mandelic acid] as the compound, how does the CC50 at 24 h read?
The CC50 at 24 h was greater than 50 µM.

Which CC50 at 24 h does the source give for `CO/C=C(/C(=O)OC)c1ccccc1Oc1cc(Oc2ccccc2C#N)ncn1` [Azoxystrobin] here?
The CC50 at 24 h was greater than 100 µM.

With `Oc1ccc(CCNCCCCCCNCCc2ccccc2)cc1O` [Dopexamine] as the compound, how does the CC50 at 24 h read?
The CC50 at 24 h was 37.1 µM.

With `Cc1ncc(CO)c(CN)c1O` [Pyridoxamine dihydrochloride] as the compound, how does the CC50 at 24 h read?
Its CC50 at 24 h is greater than 50 µM.

With `CCCCCCCCCO` [1-Nonanol] as the compound, how does the CC50 at 24 h read?
The CC50 at 24 h was greater than 90 µM.

For `CSc1ccc(C=O)cc1` [4-(Methylthio)benzaldehyde], which CC50 at 24 h is on record?
Its CC50 at 24 h is greater than 90 µM.

With `c1ccc2c(c1)-c1cccc3c1c-2cc1ccccc13` [Benzo(b)fluoranthene] as the compound, how does the CC50 at 24 h read?
Its CC50 at 24 h is greater than 90 µM.

Which CC50 at 24 h does the source give for `N=C(N)NCCC[C@H](N)C(=O)O` [L-Arginine] here?
Its CC50 at 24 h is greater than 50 µM.

With `CC1(C)C2CC[C@]3(C)[C@H](C(=O)C=C4[C@@H]5C[C@@](C)(C(=O)O)CC[C@]5(C)CC[C@]43C)[C@@]2(C)CC[C@@H]1O[C@H]1O[C@H](C(=O)O)[C@@H](O)[C@H](O)[C@H]1O[C@@H]1O[C@H](C(=O)O)[C@@H](O)[C@H](O)[C@H]1O` (some centres unmarked) [Glycyrrhizic acid, monosodium salt] as the compound, how does the CC50 at 24 h read?
The CC50 at 24 h was greater than 50 µM.

For `COC(=O)C(C)Oc1ccc(Oc2ccc(Cl)cc2Cl)cc1` (centres unmarked) [Diclofop-methyl], which CC50 at 24 h is on record?
Its CC50 at 24 h is greater than 90 µM.

Which CC50 at 24 h does the source give for `CCCCOCCOC(=O)COc1nc(Cl)c(Cl)cc1Cl` [Triclopyr butotyl] here?
Its CC50 at 24 h is greater than 90 µM.

Which CC50 at 24 h does the source give for `CC(C)[C@H]1CC[C@H](C(=O)N[C@H](Cc2ccccc2)C(=O)O)CC1` [Nateglinide] here?
Its CC50 at 24 h is greater than 50 µM.

For `CC(C)Cc1ccc(CC(=O)O)cc1` [Ibufenac], which CC50 at 24 h is on record?
The CC50 at 24 h was greater than 50 µM.

For `O=S(=O)(O)c1ccccc1/C=C/c1ccc(-c2ccc(/C=C/c3ccccc3S(=O)(=O)O)cc2)cc1` [Disodium 4,4'-bis(2-sulfostyryl)biphenyl], which CC50 at 24 h is on record?
Its CC50 at 24 h is greater than 80 µM.

With `CC(C)(C)C(=O)OCOC(=O)[C@@H]1N2C(=O)[C@@H](NC(=O)[C@H](N)c3ccccc3)[C@H]2SC1(C)C` [Pivampicillin] as the compound, how does the CC50 at 24 h read?
The CC50 at 24 h was greater than 20 µM.

Which CC50 at 24 h does the source give for `CCCCCCC(CO)CCCC` (centres unmarked) [2-Butyloctan-1-ol] here?
Its CC50 at 24 h is greater than 90 µM.

Which CC50 at 24 h does the source give for `COc1ccc(C(=O)Nc2ccccc2CCC2CCCCN2C)cc1` (centres unmarked) [Encainide hydrochloride] here?
Its CC50 at 24 h is greater than 50 µM.

With `CSCC[C@H](N)C(=O)O` [Methionine] as the compound, how does the CC50 at 24 h read?
The CC50 at 24 h was greater than 50 µM.

For `COc1cc2nc(N3CCN(C(=O)C4CCCO4)CC3)nc(N)c2cc1OC` (centres unmarked) [Terazosin hydrochloride], which CC50 at 24 h is on record?
The CC50 at 24 h was greater than 50 µM.

With `CC(C)CCCCCCOC(=O)C1CCCCC1C(=O)OCCCCCCC(C)C` (centres unmarked) [Diisononyl cyclohexane-1,2-dicarboxylate] as the compound, how does the CC50 at 24 h read?
Its CC50 at 24 h is greater than 90 µM.

Which CC50 at 24 h does the source give for `C[C@]12CCC(=O)C=C1CC[C@@H]1[C@@H]2C(=O)C[C@@]2(C)[C@H]1CC[C@]2(O)C(=O)CO` [Cortisone] here?
Its CC50 at 24 h is greater than 90 µM.

Which CC50 at 24 h does the source give for `Cc1ccc2c(c1N)C(=O)c1ccccc1C2=O` [1-Amino-2-methylanthraquinone] here?
The CC50 at 24 h was 78.4 µM.

For `CCCC1C(CC)=CC(CC)=CN1c1ccccc1` (centres unmarked) [3,5-Diethyl-1-phenyl-2-propyl-1,2-dihydropyridine], which CC50 at 24 h is on record?
Its CC50 at 24 h is greater than 90 µM.

For `CN(C)C(=O)CNC(=O)Cc1ccccc1` [N,N-Dimethyl-2-(2-phenylacetamido)acetamide], which CC50 at 24 h is on record?
The CC50 at 24 h was greater than 50 µM.

For `COc1cccc(N(C)C(=S)Oc2ccc3c(c2)CCCC3)n1` [Liranaftate], which CC50 at 24 h is on record?
Its CC50 at 24 h is greater than 50 µM.

For `CCCCCCCCc1ccc(S(=O)(=O)O)cc1` [Sodium 4-octylbenzenesulfonate], which CC50 at 24 h is on record?
Its CC50 at 24 h is greater than 90 µM.

With `CCCCCCCC[P+](CCCCCCCC)(CCCCCCCC)CCCCCCCC` [Tetraoctylphosphonium bromide] as the compound, how does the CC50 at 24 h read?
The CC50 at 24 h was 4.22 µM.

Which CC50 at 24 h does the source give for `CC1(C)CC(=O)CC(C)(C)N1` [2,2,6,6-Tetramethyl-4-piperidone] here?
The CC50 at 24 h was greater than 90 µM.

With `CCCCCCCCN(C)CCCCCCCC` [N-Methyldioctylamine] as the compound, how does the CC50 at 24 h read?
The CC50 at 24 h was greater than 90 µM.

Which CC50 at 24 h does the source give for `CCC(C)S` (centres unmarked) [2-Butanethiol] here?
The CC50 at 24 h was greater than 4 µM.

With `c1cc2c3c(cccc3c1)CC2` [Acenaphthene] as the compound, how does the CC50 at 24 h read?
Its CC50 at 24 h is greater than 90 µM.

With `CC1(C)CCC(Cc2ccc(Cl)cc2)C1(O)Cn1cncn1` (centres unmarked) [Metconazole] as the compound, how does the CC50 at 24 h read?
The CC50 at 24 h was 82.6 µM.

With `NC(=O)c1ccc([N+](=O)[O-])cc1` [4-Nitrobenzamide] as the compound, how does the CC50 at 24 h read?
The CC50 at 24 h was greater than 90 µM.

With `C[C@H]1[C@H](NC(=O)/C(=N\OC(C)(C)C(=O)O)c2csc(N)n2)C(=O)N1S(=O)(=O)O` [Aztreonam] as the compound, how does the CC50 at 24 h read?
The CC50 at 24 h was greater than 20 µM.

Which CC50 at 24 h does the source give for `CN(C)CC/C=C1\c2ccccc2CSc2ccccc21` [Dothiepin hydrochloride] here?
Its CC50 at 24 h is 6.1 µM.

With `C=CCSCC1Nc2cc(Cl)c(S(N)(=O)=O)cc2S(=O)(=O)N1` (centres unmarked) [Althiazide] as the compound, how does the CC50 at 24 h read?
The CC50 at 24 h was greater than 50 µM.

For `N[C@@H](Cc1cc(I)c(Oc2ccc(O)c(I)c2)c(I)c1)C(=O)O` [3,5,3ʹ-Triiodothyronine], which CC50 at 24 h is on record?
Its CC50 at 24 h is greater than 70 µM.

For `COC(=O)/C=C\C(=O)O` [2-Butenedioic acid (2Z)-, monomethyl ester], which CC50 at 24 h is on record?
Its CC50 at 24 h is greater than 90 µM.

With `CC1(C)CCC[C@]2(C)[C@H]3CCO[C@]3(C)CC[C@@H]12` [(-)-Ambroxide] as the compound, how does the CC50 at 24 h read?
The CC50 at 24 h was greater than 90 µM.

Which CC50 at 24 h does the source give for `CC(C)CCC(=O)CCC(C)C` [2,8-Dimethylnonan-5-one] here?
The CC50 at 24 h was greater than 90 µM.

With `O=C(Nc1ncc([N+](=O)[O-])s1)c1cccs1` [Tenonitrozole] as the compound, how does the CC50 at 24 h read?
The CC50 at 24 h was 30.4 µM.

Which CC50 at 24 h does the source give for `O=C(O)c1cccc(C(F)(F)F)c1` [3-(Trifluoromethyl)benzoic acid] here?
Its CC50 at 24 h is greater than 90 µM.

For `COCc1cnc(C2=NC(C)(C(C)C)C(=O)N2)c(C(=O)O)c1` (centres unmarked) [Imazamox], which CC50 at 24 h is on record?
Its CC50 at 24 h is greater than 90 µM.

Which CC50 at 24 h does the source give for `C=Cc1ccc(S(=O)(=O)O)cc1` [Sodium 4-vinylbenzenesulfonate] here?
Its CC50 at 24 h is 31.8 µM.

For `CC1=CC(C)C(C=O)CC1` (centres unmarked) [2,4-Dimethyl-3-cyclohexene-1-carboxaldehyde], which CC50 at 24 h is on record?
The CC50 at 24 h was greater than 90 µM.

Which CC50 at 24 h does the source give for `Nc1ccn([C@H]2CC[C@@H](CO)O2)c(=O)n1` [2',3'-Dideoxycytidine] here?
The CC50 at 24 h was greater than 50 µM.

Which CC50 at 24 h does the source give for `C=CCCCCCCCCCCCCCC` [1-Hexadecene] here?
Its CC50 at 24 h is greater than 20 µM.

For `O=C(Cl)c1ccccc1` [Benzoyl chloride], which CC50 at 24 h is on record?
The CC50 at 24 h was greater than 90 µM.

With `CC(C)(C)c1ccc(C(=O)O)cc1` [4-tert-Butylbenzoic acid] as the compound, how does the CC50 at 24 h read?
Its CC50 at 24 h is greater than 90 µM.

Same assay, conditions: rat, gh3-tre-luc cells, AC50 (uM) modified / 1000, Tox21_110001=Tox21_111251; viability, 1 nM T3 present, 24 h

Which CC50 at 24 h does the source give for `C[C@]12N[C@H](Cc3ccccc31)c1ccccc12` [Dizocilpine maleate] here?
Its CC50 at 24 h is greater than 50 µM.

Same assay, conditions: rat, gh3-tre-luc cells, AC50 (uM) modified / 1000, Tox21_110001=Tox21_200823; viability, 1 nM T3 present, 24 h

With `Clc1cccc2ccccc12` [1-Chloronaphthalene] as the compound, how does the CC50 at 24 h read?
The CC50 at 24 h was greater than 90 µM.

Same assay, conditions: rat, gh3-tre-luc cells, AC50 (uM) modified / 1000, Tox21_110001=Tox21_201288; viability, 1 nM T3 present, 24 h

For `Brc1ccc(Br)cc1` [1,4-Dibromobenzene], which CC50 at 24 h is on record?
Its CC50 at 24 h is greater than 90 µM.

Same assay, conditions: rat, gh3-tre-luc cells, AC50 (uM) modified / 1000, Tox21_110001=Tox21_201860; viability, 1 nM T3 present, 24 h

With `CCCN(CCC)N=O` [N-Nitrosodipropylamine] as the compound, how does the CC50 at 24 h read?
Its CC50 at 24 h is greater than 90 µM.

Same assay, conditions: rat, gh3-tre-luc cells, AC50 (uM) modified / 1000, Tox21_110001=Tox21_202250; viability, 1 nM T3 present, 24 h

With `COP(N)(=O)SC` (centres unmarked) [Methamidophos] as the compound, how does the CC50 at 24 h read?
Its CC50 at 24 h is greater than 90 µM.

Same assay, conditions: rat, gh3-tre-luc cells, AC50 (uM) modified / 1000, Tox21_110001=Tox21_300739; viability, 1 nM T3 present, 24 h

With `COc1cc(Cl)c(OC)cc1Cl` [Chloroneb] as the compound, how does the CC50 at 24 h read?
The CC50 at 24 h was greater than 90 µM.

Same assay, conditions: rat, gh3-tre-luc cells, AC50 (uM) modified / 1000, Tox21_110001=Tox21_302219; viability, 1 nM T3 present, 24 h

Which CC50 at 24 h does the source give for `CCOP(=S)(NC(C)C)Oc1ccccc1C(=O)OC(C)C` (centres unmarked) [Isofenphos] here?
The CC50 at 24 h was 78.7 µM.
